Test results taken from PMC7915902, “Preclinical Evaluation of [^18F]FACH in Healthy Mice and Piglets: An ^18F-Labeled Ligand for Imaging of Monocarboxylate Transporters with PET” (International Journal of Molecular Sciences, 2021).
Values joined by “and” are separate entries in the source; they are usually repeats but may differ in a detail not shown here. Equal values may be shown once.

Key:
MCTs [1] = assay: PET displacement study in mice; assay type: in vivo, mouse; settings: mice
Procedure: The biodistribution of [^18F]FACH in mice was assessed by small animal PET (Nanoscan, Mediso, Budapest, Hungary) with dynamic 60 min emission recordings, followed by T1 weighted GRE MR (TR = 15.0 ms, TE = 2.4 ms, FA = 25°) imaging for anatomical correlations and attenuation correction. The mice (n = 20) weighing 32.2 ± 2.9 g were anaesthetised with 2% isoflurane in 60% oxygen, and placed on a thermostatically heated animal bed. The animals then received i.v. injections of 0.9% saline (control), reference compound (10 mg/kg), or α-CCA-Na (25 mg/kg) ten min prior or 20 min after (displacement studies) [^18F]FACH administration (2.3–8.6 MBq, 0.5–11.2 nmol/kg). List mode PET data were binned as a series of attenuation-corrected sinogram frames (12 × 10 s, 6 × 30 s, 5 × 60 s and 10 × 300 s) and were reconstructed by Ordered Subset Expectation Maximization (OSEM3D) with four iterations, six subsets and a voxel size of 0.4 mm³ (Nucline v2.01, Mediso).
The analysis of reconstructed datasets was performed with PMOD software (v4.103, PMOD Technologies LLC, Zurich, Switzerland).

MCTs [2] = assay: Compartmental kinetic modelling of PET data in piglets; assay type: in vivo, piglet; settings: piglets; for K1 / VT / k2: 1-TCM, control; for BPND: (VT(control)/VT(pre-treated)) − 1; for K1 (representative 1-TCM curve fit) / k2 (representative 1-TCM curve fit): control study, Figure S12
Procedure: Table 4 includes the results of 1-tissue-compartment kinetic modelling (1-TCM) of [^18F]FACH in the kidney cortex and the liver of the control and pre-treated mouse groups (α-CCA-Na and reference compound). […] The BPND was estimated as the ratio of [VT(control)/VT(pre-treatment)] − 1.
Kinetic analysis of reconstructed datasets was performed with PMOD software. First, image derived arterial input functions (IDIFs) were obtained from the left ventricle in mice and from an artery close to the kidney in piglet studies. IDIFs were corrected for partial volume effects, plasma fraction from hematocrit values (individually determined for each piglet directly before PET imaging; for mice set to 0.51 according to CD-1 Mouse Hematology sheet from Charles River Laboratories, 2011) and radio-metabolites (measured for piglets, and set to zero for mice). Tri-exponential metabolite-corrected fitted input functions were used for one and two tissue compartment modelling (1-TCM/2-TCM) of time activity curves (TACs) in tissue volumes of interest (VOIs). For both species the specific blood volume was set to 0.15 mL g^−1 in the kidney cortex and 0.128 mL g^−1 in the liver, according to published values.

MCT4 = test system: MCT4; design: method as in PMID 31017677; settings: L-[14C]lactate uptake, MDA-MB231 cells; read-out: IC50 towards MCT4; cited from earlier work
SMCT1 = test system: SMCT1; design: method as in PMID 31017677; settings: [14C]nicotinate uptake assay; read-out: IC50 towards SMCT1; cited from earlier work
[3] = Metabolism and renal excretion of [18F]FACH in mice (radio-HPLC)
Procedure: Radio-metabolites were analyzed by analytical and semi-preparative HPLC on a JASCO LC-2000 system (JASCO Labor- und Datentechnik, Gross-Umstadt, Germany), consisting of a PU-2080 Plus pump, AS-2055 Plus auto injector (100 μL sample loop) or a manual injection valve with a 5 mL sample loop, and a UV-2070 Plus detector coupled with a gamma radioactivity HPLC detector (Gabi Star, Raytest Isotopenmessgeräte GmbH, Straubenhardt, Germany). Data analysis was performed with the Galaxie chromatography software (Agilent Technologies, Santa Clara, CA, USA). Monitoring of UV absorption was done at wavelengths of 254 and 400 nm (400 nm was detected as λmax for this class of compounds). For analytical and semi-preparative radio-HPLC analyses, Reprosil-Pur columns (C18-AQ 250 × 4.6 mm; 5 μm; and C18-AQ 150 × 4.6 mm; 10 μm; Dr. Maisch HPLC GmbH; Ammerbuch-Entringen, Germany) were used. Acetonitrile (ACN) mixed with a 20 mM aqueous solution of ammonium acetate (NH4OAc) was used as eluent.
[^18F]FACH (33.8 ± 3.3 MBq in 200 μL isotonic saline) was injected in awake CD-1 mice (n = 4) via a tail vein. At 30 min after radiotracer administration, the mice were anaesthetised with isoflurane, and retro-orbital blood was sampled, followed by cervical dislocation and collection of released urine.
In mouse studies, at 30 min after i.v. injection of the radiotracer [^18F]FACH, the plasma was isolated by centrifugation of a blood sample at 10,000 rpm for 2 min. […]
Protein precipitation of plasma and tissue homogenates was performed by addition of ice-cold ACN/H2O (9:1, v/v) at a ratio of 4:1 (v/v) of the solvent mixture to each tissue sample (n = 2). […] The combined supernatants (total volume between 1 to2 mL) were concentrated at 70 °C under argon flow to a final volume of approximately 100 μL and analyzed by analytical radio-HPLC. […] To determine the percentage of the radioactivity in the supernatants compared to the total radioactivity aliquots were taken at each step and, as well as the precipitates, quantified by gamma counting.

[4] = Metabolism and renal excretion of [18F]FACH in piglets (radio-HPLC, graphical analysis)
Procedure: Radio-metabolites were analyzed by analytical and semi-preparative HPLC on a JASCO LC-2000 system (JASCO Labor- und Datentechnik, Gross-Umstadt, Germany), consisting of a PU-2080 Plus pump, AS-2055 Plus auto injector (100 μL sample loop) or a manual injection valve with a 5 mL sample loop, and a UV-2070 Plus detector coupled with a gamma radioactivity HPLC detector (Gabi Star, Raytest Isotopenmessgeräte GmbH, Straubenhardt, Germany). Data analysis was performed with the Galaxie chromatography software (Agilent Technologies, Santa Clara, CA, USA). […] For analytical and semi-preparative radio-HPLC analyses, Reprosil-Pur columns (C18-AQ 250 × 4.6 mm; 5 μm; and C18-AQ 150 × 4.6 mm; 10 μm; Dr. Maisch HPLC GmbH; Ammerbuch-Entringen, Germany) were used. Acetonitrile (ACN) mixed with a 20 mM aqueous solution of ammonium acetate (NH4OAc) was used as eluent.
In corresponding piglet studies (n = 5), plasma was separated from the arterial blood samples drawn during the PET recordings at certain time points.
In piglet studies, similar procedures were implemented for preparing samples from plasma collected at 15, 30, 45 and 60 min p.i., with the exception of collecting the urine sample only at 60 min p.i. Additionally, in order to measure the radio-metabolites in the piglet kidney, the tissue was resected at 60 min p.i. and after washing in PBS, samples of the kidney cortex and medulla were isolated and homogenized in demineralized water (2 mL/g tissue) using a borosilicate glass mortar with ten strokes of a PTFE plunger at 1000 rpm (Potter S, Homogenizer, B. Braun Biotech, Sartorius AG, Göttingen, Germany). Protein precipitation was performed by addition of ice-cold ACN/H2O at a ratio of 4:1 (v/v) of organic solvent to each tissue sample. The samples were vortexed for 3 min, placed on ice for 3 min, and the suspensions were centrifuged at 12,000 rpm at 4 °C for 5 min. For the second extraction, the precipitates were washed with 200 μL of the solvent mixture and subjected to the same procedure. The combined supernatants (total volume between 68 mL) were concentrated at 70 °C under argon flow to a final volume of approximately 2 mL and analyzed by semi-preparative RP radio-HPLC. […] The analyses were performed in gradient mode using 10% ACN/20 mM NH4OAc (aq.) as eluent A and 90% ACN/20 mM NH4OAc (aq.) as eluent B under the following conditions:
To determine the percentage of the radioactivity in the supernatants compared to the total radioactivity aliquots were taken at each step and, as well as the precipitates, quantified by gamma counting.
By interpolation of the measured radio-metabolite fractions from the piglet PET studies, the continuous TACs for [^18F]FACH and its radio-metabolites were calculated. Subsequently, the magnitudes of the whole body rate constant for [^18F]FACH metabolism (k0) and the elimination rate constant for the radio-metabolites (k−1) under control and pre-treated conditions were calculated as described previously [32]. Graphical analysis of the integrals of the plasma time-concentration series of PET tracers and their radio-metabolite(s) follow a linear relationship [32, 47], where the ordinate intercept is equal to the whole body fractional rate constant for the metabolism of the parent, designated k0 (min^−1). The linear regression slope corresponds to the fractional rate constant for the elimination of the radio-metabolite from circulation, designated k−1 (min^−1), which indicates the renal clearance of the radio-metabolite.

SMILES: CCCN(CCC[18F])c1ccc(/C=C(\C#N)C(=O)O)c(OC)c1 [[^18F]FACH, (E)-2-cyano-3-{4-[(3-[^18F]fluoropropyl)(propyl)amino]-2-methoxyphenyl}acrylic acid]
- kidney cortex SUV (MCTs [1]; before injection of α-CCA-Na): 3.50 ± 0.42
- blood SUV (MCTs [1]; pre-injection of α-CCA-Na): 0.74 ± 0.23
- K1 (MCTs [2]; kidney cortex): 0.69 ± 0.11 mL/g/min
- VT (MCTs [2]; kidney cortex): 11.29 ± 1.47 mL/g
- k2 (MCTs [2]; kidney cortex): 0.06 ± 0.01 min⁻¹
- BPND (MCTs [2]; kidney cortex): 5.2
- K1 (representative 1-TCM curve fit) (MCTs [2]; kidney cortex): 0.82 mL/g/min
- k2 (representative 1-TCM curve fit) (MCTs [2]; kidney cortex): 0.08 min⁻¹
- K1 (MCTs [2]; liver): 0.64 ± 0.10 mL/g/min
- VT (MCTs [2]; liver): 5.12 ± 1.27 mL/g
- k2 (MCTs [2]; liver): 0.13 ± 0.05 min⁻¹
- BPND (MCTs [2]; liver): 0.18
- K1 (representative 1-TCM curve fit) (MCTs [2]; liver): 0.67 mL/g/min
- k2 (representative 1-TCM curve fit) (MCTs [2]; liver): 0.14 min⁻¹
- IC50 (MCT4): 6.5 nM
- IC50 (SMCT1): 78 µM
- radioactivity in bladder/urine (renal excretion) ([3]; mice, 60 min p.i., control): 0.51 ± 0.39 %ID
- intact [18F]FACH in plasma ([3]; mouse plasma, 30 min p.i.): More than 99%
- [18F]FACH (parent) in urine ([3]; mouse urine): < 5%
- apparent rate constant (k0) for [18F]FACH metabolism ([4]; piglets, control): 0.87 ± 0.34 min⁻¹
- parent radiotracer fraction in plasma ([4]; piglets, control, 60 min): 8.8 ± 4.8%
- parent radiotracer fraction in plasma ([4]; piglets, control, five min): 42 ± 13%
- intact radiotracer in urine ([4]; piglets, urine 60 min p.i.): no intact radiotracer was detectable
- parent fraction of [18F]FACH in kidney cortex ([4]; two control piglets, 60 min p.i.): 50.5% and 48.0%
